Common to all, as to format: cell-based, human
One assay relates to Pa13 gene. Description: Pa13 gene expression by real-time RT-PCR in primary skeletal muscle cells. The note with it: about 18-20 hours, vehicle control = 100. From the text:
(§1) Human hepatocyte HuH7 cells, which are epithelial cells of liver, were obtained from Japan Health Science Research Resources Bank (Osaka, Japan). Human primary adipocytes, which are connective tissue cells specialized for the synthesis and storage of fat, were obtained from Zen-Bio, Inc (Research Triangle Park, NC). Human primary skeletal muscle cells (SKMC) were obtained from Cambrex Bio Science (Walkersville, Md.). PPARα agonists, Wy14643 (Agatha, et al, 2000, Archives of Biochemistry and Biophysics 380:353-359) and fenofibrates were obtained from Cayman Chemical (Ann Arbor, Mich.) and Sigma (St Louis, Mo.), respectively.
(§2) Human HuH7 cells were cultured in Dulbecco's Modified Eagle Medium with 10% Fetal Bovine Serum (Gibco, N.Y.). Cells were treated with charcoal-stripped, delipidated calf serum (5%) (Sigma, St Louis, Mo.) for about 4-18 hours. Then, cells were treated with different concentrations of PPARα agonist (Wy14643 or fenofibrates) for about 20-24 h. Human SKM cells were cultured in Skeletal Muscle Growth Medium (Cambrex Bio Science, Walkersville, Md.), and were treated with different concentrations of PPARα agonist (Wy14643 or fenofibrates) for about 18-20 hours. Human primary adipocytes were cultured in Preadipocyte Medium, (Cat #PM—1, Zen-Bio, Inc., Research Triangle Park, NC), and were treated with different concentrations of PPARα agonist (Wy14643 or fenofibrates) for about 18-20 hours.
(§3) Total RNA was purified from cultured cells following the protocol provided by the manufacturer (Trizon method, Invitrogen Inc. Ca). The polymerase chain reaction (PCR) primers and fluorescent probes (TagMan probes) for Pa9, Pa13, and Pa21 were designed from GenBank sequences of accession numbers W30988, AB000584, and NM_080725, respectively. The primers and probes were designed using the software PrimerDesign (Applied Biosystems, Foster City, Calif.). The PCR primers for Pa9 were SEQ ID NO: 7, (5-[…]) and SEQ ID NO: 8 (5-[…]). […] The PCR primers for Pa13 were SEQ ID NO: 10 (5-[…], T) and SEQ ID NO: 11 (5-[…] T). […] The PCR primers for Pa21 were SEQ ID NO: 13 (5-[…] C) and SEQ ID NO: 14 (5-[…]). […] All primers and probes were synthesized by Keystone Labs (Camarillo, Calif.).
(§4) Reverse transcription (RT) and PCR were conducted in one step using “One-Step RT-PCR Master Mix Reagent” kit (Applied Biosystems, Foster City, Calif.) in ABI PRISM 7700 Sequence Detection System (Applied Biosystems). Each reaction was performed in a total volume of 25 μl containing 40 ng of total RNA. The reaction condition was: 48° C. for 30 minutes, 60° C. for 30 minutes, 94° C. for 5 minutes, followed by 40 cycles of 94° C. for 20 seconds and 60° C. for 1 minute. The primers for 18S ribosomal RNA were developed and provided by Applied Biosystems. The measurement of human 18S ribosomal RNA was used as an internal control for normalization of measuring and loading errors. PCR data were collected by Ct value (the cycle number at which logarithmic PCR plots cross a calculated threshold line) according to the manufacturer's guidelines and the value was used to determine the Δ^Ct (Ct of the target gene minus the Ct of 18S ribosomal RNA controls). Relative mRNA level was calculated using the equation 2^−ΔΔCt as described previously (Heid et al., 1996, Genome Res. 6:986-994).
(In qPCR the cycle at which signal appears reflects the starting amount.)

Assay [1] relates to Pa9 gene. Description: Pa9 gene expression by real-time RT-PCR in HuH7 hepatocytes. The note with it: for Pa9 (W38098) gene expression, Percentage ± SE (%): HuH7 hepatocytes, about 20-24 h, vehicle control = 100.
From the text: as §1, §2, §3, §4

The next assay deals with Pa21 gene. Description: Pa21 gene expression by real-time RT-PCR in primary adipocytes. The note with it: about 18-20 hours, vehicle control = 100.
From the text: as §1, §2, §3, §4

The test system of assay [2] is Pa9 gene. The assay can be described thus: Pa9 gene expression by real-time RT-PCR in primary skeletal muscle cells. The note with it: for Pa9 (W38098) gene expression, Percentage ± SE (%): about 18-20 hours, vehicle control = 100; for Pa9 gene expression, Fold of Induction: Veh = 1.00.
From the text: as §1, §2, §3, §4
The nucleotide sequence of the human FDRG gene (AX278133) is provided in SEQ ID NO: 1 and the sequence alignment between W30988 and FDRG gene is shown in FIG. 1. […] Quantitative real-time RT-PCR was performed to test whether gene expression of the human FDRG gene is regulated by PPARα.

Results on one compound are retold here after patent US20050191668A1, “Methods of using peroxisome proliferator-activated receptor alpha target genes” (priority 2004, published 2005).

On to `Cc1cccc(Nc2cc(Cl)nc(SCC(=O)O)n2)c1C` [Wy14643], for which the “Pa13 (N26311) gene expression, Percentage ± SE (%)” value with Pa13 gene (3 uM) was 36.4 ± 6.4%; with Pa13 gene (10 uM), 45.5 ± 10%; in the assay on Pa13 gene (30 uM), 136.4 ± 38.7%; with Pa13 gene (100 uM) it was 290.9 ± 54.1%; in the assay on Pa13 gene (300 uM) it was 1672.7 ± 32%. Moreover, the “Pa9 (W38098) gene expression, Percentage ± SE (%)” value with Pa9 gene [1] (3 uM) came to 90 ± 17%; with Pa9 gene [1] (10 uM), 190 ± 62.1%; in the assay on Pa9 gene [1] (30 uM), 200 ± 48%; in the assay on Pa9 gene [1] (100 uM), 540 ± 57.8%; with Pa9 gene [1] (300 uM), 690 ± 42.8%; in the assay on Pa9 gene [2] (3 uM), 110 ± 24.5%. In addition, the “Pa9 (W38098) gene expression, Percentage ± SE (%)” value in the assay with Pa9 gene [2] (10 uM) came to 230 ± 35.7%; in the assay on Pa9 gene [2] (30 uM), 870 ± 30%; with Pa9 gene [2] (100 uM) it was 860 ± 0.9%; with Pa9 gene [2] (300 uM), 610 ± 10.2%. Further, the “gene expression of Pa9, Pa13, or Pa21 (statement in words)” value in the assay on Pa9 gene [1] (human HuH7 cells, primary SKMU cells, or primary adipocytes (Tables 1-3)) is “increased gene expression”. Besides, the figures for the “Pa21 (H4960) gene expression, Percentage ± SE (%)” value in the assay on Pa21 gene (10 uM), in the assay with Pa21 gene (50 uM) and in the assay with Pa21 gene (250 uM) were 92 ± 10%, 108 ± 2% and 314 ± 2.5%, respectively. Also, the “Pa9 gene expression, Fold of Induction” value with Pa9 gene [2] (30 uM) is on record as 3.64 fold; with Pa9 gene [2] (100 uM), 6.45 fold.
